Data published in patent publication US10017463B2, “Inhibitors of deubiquitinating proteases” (Brandeis University, priority 2014, dated 2018).
Like-named read-outs stand apart in the source and are kept apart here.

How the values were obtained:
[1] = test system: G76VUb-GFP in COS1 cells; experiment: UbG76V-GFP proteasome assay in COS1 cells; assay type: cell-based
Description: COS1 cells at approx. 75% confluence in a 48 well plate were transiently transfected with a plasmid encoding G76VUb-GFP using Mirus 2020 reagent. After this time media with either compound in DMSO or 1% DMSO was added to the cells and the cells were incubated for 8 h. After this time, cells were trypsinized, diluted with 1% FBS in PBS (FACS buffer) then centrifuged at 700 g. After this time cells on ice were treated with FACS buffer containing propidium iodide (0.05 mg/mL). The GFP (indicating proteasome activity) and red fluorescence (dye exclusion showing acute toxicity) were subsequently measured by FACS.

[2] = test system: BaF3/p210 cells; experiment: Proliferation assay (Alamar Blue), BaF3/p210; assay type: cell-based, murine; conditions: for EC50: Mus musculus, BaF3, fresh media with compound added after 24 h, 24 h further growth, read-out: EC50 (viable cells)
Text: This cell line consists of engineered murine leukemia cells that ectopically express Bcr-Abl. Parent BaF3 cells require exogenous interleukin 3 (IL3) because IL3 stimulates expression of MCL1, which is required for survival. However, BaF3/p210 cells require no exogenous interleukins but need Bcr-Abl for survival.

[3] = biological target: purified recombinant USP9x (Homo sapiens, UniProt Q93008); experiment: Purified recombinant USP9x, Cy5-Ub-VME activity profiling; assay type: biochemical; conditions: for inhibition of USP9x in presence of USP7CD: at 12.5 μM; for fluorescent signal of USP9x-(Cy5-Ub-VME) complex: preincubation at 50 or 25 μM
Description: Panel A is an image showing that purified recombinant USP9x (7 nM) was treated with the stated compound at 50 μM for 19 min prior to addition of Cy5-Ub-VME for 5 min, then the mixture was resolved by S.D.S-PAGE and analyzed on a typhoon imager. Panel B is an image of an immunoblot showing purified recombinant USP9x (7 nM) and USP7CD (20 nM) were treated with the stated compound at the stated concentration for 19 min prior to addition of Cy5-Ub-VME for 5 min then the mixture was resolved by S.D.S-PAGE and analyzed on a Typhoon imager.

[4] = biological target: T1, USP9x (Homo sapiens, UniProt Q93008); experiment: HA-Ubiquitin-Vinylsulfone activity profiling in K562 lysates; assay type: biochemical
T1 construct: Lysate labeling assay on untransfected cells; endogenous in cells; host or cells: K562
Description: Panel B is an image of an immunoblot showing the titration of TCM23 and TCM28 in K562 lysates. Panel C is a plot showing the quantitation of band corresponding to USP9x in panel B. Panel D is an image of an immunoblot showing the titration of WP1130 in K562 lysates. Panel E is a plot showing the quantification of the efficacy of ITCs for the inhibition of USP9x in K562 lysates (see also Table 2).
[…] After this time HA-Ub-VS (1.5 μM) was added and incubated for 15 min. After this time reaction mixture (15 μL) was removed and quenched in 2× (final concentration) reducing Laemeli buffer. The reaction mixtures were heated to 37° C. for 10 min prior to analysis by western blot for HA.

[5] = biological target: T2, USP9x (Mus musculus, UniProt P70398); experiment: Cy5-Ub-VME profiling of BaF3 lysates; assay type: biochemical, murine; conditions: BaF3 lysate, approximately 22 bands
T2 construct: endogenous in cells; host or cells: BaF3
Description: Panel A is an image of an immunoblot showing representative scans of lysates treated with compound for 15 min then Cy5-Ub-VME. Panel B is a plot of the bands in each lane using Image J processing and analysis software.
Using Image J, the individual lanes from the lysates were plotted as a function of TU50 concentration.

[6] = biological target: T3, recombinant human 20S proteasome (Homo sapiens, UniProt P28074); experiment: 20S proteasome assay (Suc-Leu-Leu-Val-Tyr-AMC); assay type: biochemical; conditions: 50 μM for the TU compounds (FIG. 6D)
T3 construct: purchased Boston Biochem
Description: To recombinant human 20S proteasome ([…]) in 50 mM potassium phosphate pH 7.6, 50 mM NaCl, 1 mM DTT was added the compound or DMSO. This mixture was incubated at 25° C. for 30 min after which time substrate (Suc-Leu-Leu-Val-Tyr-AMC, 100 μM or 17 μM) was added and release of AMC was measured as a function of time using a plate reader for 30 min. The steady state rates were calculated and normalized to the DMSO rate. The concentration of inhibitor required to inhibit the enzyme by 50% was calculated using prism.

[7] = test system: K562 cells; experiment: Annexin V-FITC/PI apoptosis assay, K562; assay type: cell-based; conditions: 15 or 30 μM, 24 h
Description: (each point is shown as mean+/−s.d. of 2 replicates). Panel A is a bar graph showing the data for HeLa cells (30 μM); Panel B is a bar graph showing the data for K562 (30 μM); Panel C is a bar graph showing the data for K562 (15 μM).
Since K562 cells are dependent upon Bcr-Abl for survival, it was predicted that these cells would also be susceptible to TU compounds. However, K562 cells gave a very weak signal in the Alamar Blue® assay. In lieu of the Alamar Blue assay, an apoptosis assay was used to show susceptibility. This assay uses fluorescein-modified Annexin V to detect phosphatidyl serine (PS) on the cell surface. See Vermes et al., J. Immon. Meth. 184, 39-51 (1995). PS is typically expressed on the inner leaflet of the cell membrane. However in the early stages of apoptosis, PS translocates to the outer leaflet and can be bound by Annexin V. Thus, during apoptosis cells will become greener in the presence of Annexin V-Fluorescine.

[8] = biological target: T4, UCHL3 (Mus musculus, UniProt Q9JKB1); experiment: Cy5-Ub-VME activity profiling of treated BaF3/p210 cells, UCHL3; assay type: cell-based, murine; conditions: 50 μM, 4 h
T4 construct: endogenous in cells; host or cells: BaF3/p210
T4 sequence (Q9JKB1 1-230): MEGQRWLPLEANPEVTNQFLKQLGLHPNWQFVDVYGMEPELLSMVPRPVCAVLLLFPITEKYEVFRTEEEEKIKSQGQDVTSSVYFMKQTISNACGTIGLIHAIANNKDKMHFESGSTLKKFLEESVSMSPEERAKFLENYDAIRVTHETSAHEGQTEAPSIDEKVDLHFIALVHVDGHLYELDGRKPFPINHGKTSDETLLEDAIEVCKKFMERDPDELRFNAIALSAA
Description: FIG. 9 has two panels (A and B) depicting data showing that TUs inhibit DUBs in cells. BaF3/p210 cells were incubated with the stated concentration of compound for 4 h. After this time cells were lysed using beads, lysates were normalized, then exposed to Cy5-Ub-VME for 5 min. After quenching, lysates were resolved by SDS-PAGE, analyzed on typhoon, then stained by Coomassie. Panel A is an image of the SDS-PAGE gel visualized via Typhoon imager. Panel B is an image of the SDS PAGE gel stained with Coomassie.
The increased promiscuity of the inhibitors when the experiment is carried out in cells likely stems from the increased assay time (4 h vs 20 min) coupled with the slow on rates of the inhibitors and their targets.

[9] = test system: BaF3 parent; experiment: Growth inhibition assay, BaF3 parent; assay type: cell-based; conditions: at higher concentrations than BaF3/p210
Text: MCL1 is required to sustain growth of many transformed cells and is also regulated by USP9x. […] These findings help to explain why these compounds are toxic to Bcr-Abl independent cancer lines, especially BaF3.

[10] = HA-Ub-VS profiling, values in text, read-out: EC50 for USP9x
[11] = inhibition of USP9x in K562 lysates, data from FIG. 1, read-out: EC50

T1 sequence (Q93008 whole entry): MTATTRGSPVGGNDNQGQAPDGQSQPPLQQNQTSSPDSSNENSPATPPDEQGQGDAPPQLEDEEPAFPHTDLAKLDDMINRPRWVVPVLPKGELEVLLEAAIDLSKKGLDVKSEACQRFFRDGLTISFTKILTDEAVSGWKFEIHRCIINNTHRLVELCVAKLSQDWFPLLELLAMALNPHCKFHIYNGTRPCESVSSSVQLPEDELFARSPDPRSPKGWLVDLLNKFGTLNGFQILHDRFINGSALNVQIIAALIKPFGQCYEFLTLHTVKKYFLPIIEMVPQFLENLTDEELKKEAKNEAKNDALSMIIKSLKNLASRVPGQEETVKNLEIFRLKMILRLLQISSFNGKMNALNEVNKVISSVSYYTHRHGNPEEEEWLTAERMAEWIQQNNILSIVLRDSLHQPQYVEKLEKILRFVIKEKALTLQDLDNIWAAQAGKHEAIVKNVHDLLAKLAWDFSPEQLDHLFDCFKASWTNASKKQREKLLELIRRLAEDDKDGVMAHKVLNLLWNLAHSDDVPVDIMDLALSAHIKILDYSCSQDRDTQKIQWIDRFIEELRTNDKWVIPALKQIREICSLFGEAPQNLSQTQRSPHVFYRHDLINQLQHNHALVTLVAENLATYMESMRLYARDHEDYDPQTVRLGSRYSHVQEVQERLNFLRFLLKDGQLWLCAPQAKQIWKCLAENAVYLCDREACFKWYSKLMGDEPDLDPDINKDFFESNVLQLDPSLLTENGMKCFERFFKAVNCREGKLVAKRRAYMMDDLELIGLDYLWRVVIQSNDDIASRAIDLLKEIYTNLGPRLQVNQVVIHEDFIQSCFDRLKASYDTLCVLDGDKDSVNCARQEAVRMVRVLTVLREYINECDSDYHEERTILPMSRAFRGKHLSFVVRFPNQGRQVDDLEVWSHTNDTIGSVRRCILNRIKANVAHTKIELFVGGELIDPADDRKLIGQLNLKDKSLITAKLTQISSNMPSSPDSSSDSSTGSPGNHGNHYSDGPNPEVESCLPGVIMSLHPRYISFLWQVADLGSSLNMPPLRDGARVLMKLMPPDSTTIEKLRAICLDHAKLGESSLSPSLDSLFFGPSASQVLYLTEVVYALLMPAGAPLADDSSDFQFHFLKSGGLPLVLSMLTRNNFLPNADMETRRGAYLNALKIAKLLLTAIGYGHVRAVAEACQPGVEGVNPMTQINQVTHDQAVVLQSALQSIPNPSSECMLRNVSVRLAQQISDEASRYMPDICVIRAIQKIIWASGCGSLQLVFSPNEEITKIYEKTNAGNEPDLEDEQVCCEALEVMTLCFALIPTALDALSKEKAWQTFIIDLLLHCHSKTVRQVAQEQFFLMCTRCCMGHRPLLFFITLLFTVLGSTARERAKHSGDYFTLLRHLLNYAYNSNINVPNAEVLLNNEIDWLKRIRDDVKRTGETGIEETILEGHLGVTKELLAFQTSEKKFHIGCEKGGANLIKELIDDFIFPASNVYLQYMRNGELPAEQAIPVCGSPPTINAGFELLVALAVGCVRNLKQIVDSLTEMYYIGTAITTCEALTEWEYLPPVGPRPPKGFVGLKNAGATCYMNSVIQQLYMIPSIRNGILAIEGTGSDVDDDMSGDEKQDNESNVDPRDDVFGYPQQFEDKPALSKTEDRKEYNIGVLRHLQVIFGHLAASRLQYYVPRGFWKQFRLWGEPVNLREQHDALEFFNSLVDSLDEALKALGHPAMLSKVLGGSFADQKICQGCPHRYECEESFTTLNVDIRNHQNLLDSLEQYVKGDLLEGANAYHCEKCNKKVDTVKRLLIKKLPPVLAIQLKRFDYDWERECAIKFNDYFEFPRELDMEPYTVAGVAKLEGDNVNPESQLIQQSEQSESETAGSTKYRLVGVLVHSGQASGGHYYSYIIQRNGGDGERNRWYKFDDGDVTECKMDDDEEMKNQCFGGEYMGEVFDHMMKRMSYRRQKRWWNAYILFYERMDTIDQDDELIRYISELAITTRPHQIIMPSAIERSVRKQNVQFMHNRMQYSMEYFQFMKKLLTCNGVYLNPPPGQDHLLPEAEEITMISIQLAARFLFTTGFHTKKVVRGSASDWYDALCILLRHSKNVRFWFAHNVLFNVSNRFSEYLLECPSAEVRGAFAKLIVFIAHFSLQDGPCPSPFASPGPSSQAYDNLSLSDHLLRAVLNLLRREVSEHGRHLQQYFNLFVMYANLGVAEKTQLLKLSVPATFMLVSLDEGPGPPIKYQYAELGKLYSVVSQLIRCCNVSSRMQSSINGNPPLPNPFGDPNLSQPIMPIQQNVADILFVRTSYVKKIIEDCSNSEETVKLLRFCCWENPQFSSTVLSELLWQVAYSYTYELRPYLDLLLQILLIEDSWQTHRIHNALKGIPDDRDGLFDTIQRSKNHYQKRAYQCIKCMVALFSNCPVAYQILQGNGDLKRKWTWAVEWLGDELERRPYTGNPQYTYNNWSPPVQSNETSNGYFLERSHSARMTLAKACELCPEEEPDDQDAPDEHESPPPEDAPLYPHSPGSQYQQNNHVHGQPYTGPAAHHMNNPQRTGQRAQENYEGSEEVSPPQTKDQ
Sequence of purified recombinant USP9x (Q93008 whole entry, species assumed): as the sequence (Q93008 whole entry) above
T2 sequence (P70398 whole entry): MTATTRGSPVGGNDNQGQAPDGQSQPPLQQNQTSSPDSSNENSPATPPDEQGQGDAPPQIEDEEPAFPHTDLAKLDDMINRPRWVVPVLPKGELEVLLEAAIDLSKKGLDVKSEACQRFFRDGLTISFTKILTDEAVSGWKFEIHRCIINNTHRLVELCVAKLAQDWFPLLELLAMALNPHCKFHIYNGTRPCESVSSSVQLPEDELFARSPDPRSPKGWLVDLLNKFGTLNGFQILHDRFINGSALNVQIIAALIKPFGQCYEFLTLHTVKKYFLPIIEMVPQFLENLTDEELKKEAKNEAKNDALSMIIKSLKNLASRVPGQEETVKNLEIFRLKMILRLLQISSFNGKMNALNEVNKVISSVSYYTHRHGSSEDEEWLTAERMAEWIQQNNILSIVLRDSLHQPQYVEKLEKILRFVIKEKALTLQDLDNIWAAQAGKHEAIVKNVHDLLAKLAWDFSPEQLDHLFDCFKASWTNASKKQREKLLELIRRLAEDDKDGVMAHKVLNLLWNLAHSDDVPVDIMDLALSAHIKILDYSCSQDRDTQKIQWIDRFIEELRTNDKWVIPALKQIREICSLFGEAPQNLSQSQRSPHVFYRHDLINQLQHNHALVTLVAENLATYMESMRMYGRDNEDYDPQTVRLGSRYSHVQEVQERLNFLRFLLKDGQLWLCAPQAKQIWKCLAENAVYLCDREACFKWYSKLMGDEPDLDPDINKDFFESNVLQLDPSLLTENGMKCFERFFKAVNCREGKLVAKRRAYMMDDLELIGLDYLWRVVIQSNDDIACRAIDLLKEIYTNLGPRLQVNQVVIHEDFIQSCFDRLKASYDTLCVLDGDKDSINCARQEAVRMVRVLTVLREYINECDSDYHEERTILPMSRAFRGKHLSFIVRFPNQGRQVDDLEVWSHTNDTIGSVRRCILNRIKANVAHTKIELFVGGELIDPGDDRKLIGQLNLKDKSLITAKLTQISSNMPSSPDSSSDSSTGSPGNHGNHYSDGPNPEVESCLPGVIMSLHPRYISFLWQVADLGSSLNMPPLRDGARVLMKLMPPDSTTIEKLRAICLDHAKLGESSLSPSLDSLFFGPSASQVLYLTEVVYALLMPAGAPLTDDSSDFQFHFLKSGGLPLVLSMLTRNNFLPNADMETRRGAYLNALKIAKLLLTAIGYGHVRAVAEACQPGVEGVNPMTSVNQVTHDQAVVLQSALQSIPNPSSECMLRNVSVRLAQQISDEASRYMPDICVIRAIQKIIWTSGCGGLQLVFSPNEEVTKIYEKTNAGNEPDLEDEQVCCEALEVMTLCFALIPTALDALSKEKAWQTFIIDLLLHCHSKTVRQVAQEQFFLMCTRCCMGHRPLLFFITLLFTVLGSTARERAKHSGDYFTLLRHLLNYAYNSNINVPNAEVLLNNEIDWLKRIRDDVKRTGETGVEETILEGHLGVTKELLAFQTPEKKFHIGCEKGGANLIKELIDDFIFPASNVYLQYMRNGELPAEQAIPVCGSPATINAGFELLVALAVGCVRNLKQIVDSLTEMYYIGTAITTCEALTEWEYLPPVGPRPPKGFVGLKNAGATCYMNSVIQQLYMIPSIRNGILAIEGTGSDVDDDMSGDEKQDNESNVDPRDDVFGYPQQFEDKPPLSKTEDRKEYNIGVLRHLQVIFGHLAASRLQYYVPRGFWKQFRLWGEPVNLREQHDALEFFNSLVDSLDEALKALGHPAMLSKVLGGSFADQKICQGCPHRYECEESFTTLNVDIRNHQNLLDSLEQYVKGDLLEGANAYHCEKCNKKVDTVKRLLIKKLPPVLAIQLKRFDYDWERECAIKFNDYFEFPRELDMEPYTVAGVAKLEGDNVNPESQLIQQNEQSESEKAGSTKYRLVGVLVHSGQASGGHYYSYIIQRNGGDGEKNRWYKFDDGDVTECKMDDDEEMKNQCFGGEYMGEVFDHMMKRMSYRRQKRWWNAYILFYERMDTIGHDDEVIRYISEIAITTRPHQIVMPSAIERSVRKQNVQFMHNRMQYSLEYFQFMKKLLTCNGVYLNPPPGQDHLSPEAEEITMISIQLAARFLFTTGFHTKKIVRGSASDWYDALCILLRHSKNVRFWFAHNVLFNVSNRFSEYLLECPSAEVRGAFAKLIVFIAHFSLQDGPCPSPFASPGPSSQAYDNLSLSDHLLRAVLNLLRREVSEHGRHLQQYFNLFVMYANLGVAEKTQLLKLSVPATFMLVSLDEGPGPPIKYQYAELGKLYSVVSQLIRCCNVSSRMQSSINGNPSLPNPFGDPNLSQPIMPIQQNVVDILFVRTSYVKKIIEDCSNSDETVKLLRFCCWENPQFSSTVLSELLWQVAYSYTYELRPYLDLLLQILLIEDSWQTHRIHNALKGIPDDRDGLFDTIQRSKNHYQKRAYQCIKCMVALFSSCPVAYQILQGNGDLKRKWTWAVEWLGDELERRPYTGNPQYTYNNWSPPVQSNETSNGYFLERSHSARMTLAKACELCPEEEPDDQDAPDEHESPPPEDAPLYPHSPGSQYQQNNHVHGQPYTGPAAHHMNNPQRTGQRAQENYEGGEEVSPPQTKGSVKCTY

Structure (SMILES)	inhibition of the proteasome in G76VUb-GFP assay ([1]; COS1, 8 h)	GFP signal ([1]; COS1, at 50 μM)	growth inhibition of BaF3/p210 cells [2]	selectivity for BaF3/p210 over NIH3T3 cells [2]	selectivity for BaF3/p210 over other cancer lines [2]	EC50 [2]	inhibition of USP9x in presence of USP7CD [3]	fluorescent signal of USP9x-(Cy5-Ub-VME) complex [3]	inhibition of USP9x [4]	EC50 [4, 10]	EC50 [4, 11]	selectivity for USP9x among Cy5-Ub-VME reactive bands [5]	inhibition of pure 20S proteasome [6]	apoptosis and necrosis in K562 [7]	effect on UCHL3 [8]	susceptibility of BaF3 parent (growth inhibition) [9]	GFP signal ([1]; COS1, 8 h)
CC(C)(C)OC(=O)NCCc1ccc(N=C=S)cc1 [TU46]	did not inhibit	slight increase in GFP signal	good growth inhibition	over a ten-fold selectivity	at least a five-fold selectivity	11 µM	strongly inhibited	oblation of the fluorescent signal	significant inhibition	6 to 12 µM	12 µM	selective for USP9x	did not inhibit	large increase in both apoptosis and necrosis	relatively unaffected	susceptible	–
O=C(NCc1ccc(N=C=S)cc1)OCc1ccccc1 [TU49]	did not inhibit	–	good growth inhibition	–	–	–	–	–	–	–	–	–	did not inhibit	large increase in both apoptosis and necrosis	relatively unaffected	–	decreased the GFP signal
CC(C)(C)OC(=O)NCc1cccc(N=C=S)c1 [TU50]	did not inhibit	–	good growth inhibition	over a ten-fold selectivity	at least a five-fold selectivity	16 µM	strongly inhibited	oblation of the fluorescent signal	significant inhibition	6 to 12 µM	9 µM	clearly the most affected	did not inhibit	large increase in both apoptosis and necrosis	relatively unaffected	susceptible	decreased the GFP signal
